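The compound was tested at five concentrations on cells cultured in 96-well plates, with a 48-hour exposure period. The concentration for 50% growth inhibition is given as GI50.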 Calls of active or inactive are those of the source. No stated cut-off is given here; in the data, active = GI50 up to about 1.1 µM and inactive = higher.
Assays:
Test in all cases: growth of human tumour cells (NCI), 48 h
[1] = system: TK-10
[2] = system: ACHN
[3] = system: MOLT-4
[4] = system: SF-268
[5] = system: SK-MEL-5
[6] = system: HT-29
[7] = system: HL-60
[8] = system: A498
[9] = system: RXF 393
[10] = system: KM12
[11] = system: SW-620
[12] = system: HOP-92
[13] = system: UO-31
[14] = system: SNB-75
[15] = system: OVCAR-4
[16] = system: U-251
[17] = system: OVCAR-3
[18] = system: NCI/ADR-RES
[19] = system: T47D
[20] = system: DU-145

Measured: GI50

C[N+]1=c2c3cccc4cccc(c(=O)n2CC1)c43
inactive: [1] 5.82 µM | [2] 12.5 µM | [3] 3.37 µM | [4] 12.3 µM | [5] 18.2 µM | [6] 16.8 µM | [7] 20.9 µM | [8] 15.1 µM | [9] 11.4 µM | [10] 18.3 µM | [11] 11 µM | [12] 24.7 µM | [13] 12.3 µM | [14] 21.8 µM | [15] 17.6 µM | [16] 28.6 µM | [17] 25.7 µM

Brc1ccc(-c2[nH]c3ccccc3c2/C=N\Nc2ccc(-c3nc4ccccc4[nH]3)cc2)cc1
active: [18] < 0.01 µM | [2] < 0.01 µM | [3] < 0.01 µM | [4] < 0.01 µM | [5] < 0.01 µM | [6] < 0.01 µM | [7] < 0.01 µM | [9] < 0.01 µM | [10] < 0.01 µM | [11] < 0.01 µM | [13] < 0.01 µM | [20] < 0.01 µM | [16] < 0.01 µM | [17] < 0.01 µM
inactive: [19] > 56.4 µM

N#CC1=C(Nc2ccccc2)SC=C(c2ccccc2)N=C1NCc1ccccc1
inactive: [1] > 100 µM | [18] > 100 µM | [2] > 100 µM | [3] 72.6 µM | [4] > 100 µM | [5] 54.5 µM | [8] > 100 µM | [19] > 100 µM | [9] > 100 µM | [10] > 100 µM | [11] > 100 µM | [13] 71 µM | [20] > 100 µM | [15] > 100 µM | [16] > 100 µM | [17] > 100 µM

CC1=CC(=O)/C(=C/NC(=S)c2ccccc2)C(=O)O1
inactive: [1] > 100 µM | [18] > 100 µM | [2] > 100 µM | [3] > 100 µM | [5] > 100 µM | [6] > 100 µM | [19] > 100 µM | [10] > 100 µM | [11] > 100 µM | [12] > 100 µM | [13] > 100 µM | [14] > 100 µM | [20] > 100 µM | [15] > 100 µM | [16] > 100 µM | [17] > 100 µM

CCOC(=O)c1c(-c2ccc(Cl)cc2)c(C#N)c(=S)n(C2OC(COC(C)=O)C(OC(C)=O)C(OC(C)=O)C2OC(C)=O)c1-c1ccccc1 (centres undefined)
inactive: [1] > 100 µM | [18] > 100 µM | [2] > 100 µM | [3] > 100 µM | [4] > 100 µM | [5] 28 µM | [6] > 100 µM | [7] > 100 µM | [19] > 100 µM | [9] > 100 µM | [10] > 100 µM | [11] > 100 µM | [12] 12.7 µM | [13] > 100 µM | [14] 21.6 µM | [20] > 100 µM | [15] > 100 µM | [16] > 100 µM | [17] > 100 µM

NS(=O)(=O)c1ccc(NC(=O)COC(=O)c2cccc3c(=O)c4ccccc4[nH]c23)cc1
inactive: [1] 24.7 µM | [2] 26.5 µM | [3] 14.3 µM | [4] 15.9 µM | [5] > 83.4 µM | [6] > 100 µM | [7] > 100 µM | [8] 17.9 µM | [9] 17.5 µM | [10] 31.6 µM | [11] 52.7 µM | [12] 16.5 µM | [13] 23.3 µM | [14] 14.4 µM | [15] 25.5 µM | [16] 14.4 µM | [17] 20.5 µM

COc1cc(OC)cc(C(=O)Cc2c(C(=O)c3ccccc3)c3ccccc3n2C(=O)c2ccccc2)c1
inactive: [1] 38.5 µM | [2] 33 µM | [3] 9.4 µM | [4] 65.3 µM | [5] 13.1 µM | [6] 22.9 µM | [7] 34.5 µM | [8] 13.2 µM | [9] 43.6 µM | [10] 33.7 µM | [11] 37.5 µM | [12] 3.78 µM | [13] 24.4 µM | [14] 7.46 µM | [15] 15.3 µM | [16] 20.2 µM | [17] 21.3 µM

CSCCC(NC(=O)Cc1ccc(C(=O)c2ccccc2)cc1)C(=O)N1CCN(CCCCN2c3ccccc3Sc3cc(N=[N+]=[N-])ccc32)CC1 (centres undefined)
inactive: [1] > 100 µM | [2] > 100 µM | [3] > 100 µM | [4] > 100 µM | [5] 30.2 µM | [6] > 100 µM | [7] 30.6 µM | [8] 72.3 µM | [9] 89.9 µM | [10] 20.4 µM | [12] > 100 µM | [13] 34.8 µM | [20] 47 µM | [15] 16.5 µM | [16] > 100 µM | [17] > 100 µM

CC1C(c2ccccc2O)c2cc3c(cc2OC1N1CCCC1)OCO3 (centres undefined)
inactive: [1] 39.2 µM | [2] 32.7 µM | [3] 19.6 µM | [4] 33.3 µM | [5] 39.2 µM | [6] 17.1 µM | [7] 19.2 µM | [8] 23.2 µM | [19] 34.7 µM | [9] 13.7 µM | [10] 33.5 µM | [11] 20.8 µM | [12] 19.8 µM | [13] 31.6 µM | [14] 22.2 µM | [20] 45.1 µM | [16] 31.7 µM | [17] 20.9 µM

COC(=O)CC(=O)NCC1=CCC(=O)CC1
inactive: [1] > 100 µM | [3] > 100 µM | [4] > 100 µM | [5] > 100 µM | [6] > 100 µM | [7] > 100 µM | [8] > 100 µM | [9] > 100 µM | [10] > 100 µM | [11] > 100 µM | [12] > 100 µM | [13] > 100 µM | [14] > 100 µM | [15] > 100 µM | [16] > 100 µM | [17] > 100 µM

O=C1Nc2ccccc2/C1=N/Nc1ncccc1[N+](=O)[O-]
inactive: [1] 14.1 µM | [18] 9.25 µM | [2] 4.69 µM | [3] 48.1 µM | [4] 11.9 µM | [6] 6.12 µM | [8] 71.3 µM | [10] 3.42 µM | [11] 8.13 µM | [12] 62.2 µM | [13] 11.6 µM | [14] 1.39 µM | [20] 14.6 µM | [15] 19.2 µM | [16] 7.18 µM | [17] 6.25 µM

CC1=C(C(=O)Nc2ccc([N+](=O)[O-])cc2)C(c2ccco2)C(C(=O)Nc2ccc([N+](=O)[O-])cc2)=C(C)N1
inactive: [1] 12.3 µM | [2] 4.4 µM | [3] 4.33 µM | [4] 21.3 µM | [5] 14.5 µM | [6] 25.8 µM | [7] 5.18 µM | [8] 10.5 µM | [9] 4.61 µM | [10] 6.41 µM | [11] 24.4 µM | [12] 14.8 µM | [13] 7.24 µM | [14] 2.72 µM | [15] 3.88 µM | [16] 21.9 µM | [17] 11.2 µM

CC(C(=O)Oc1ccc2ccccc2c1-c1c(O)ccc2ccccc12)c1ccccc1 (centres undefined)
inactive: [1] 17.6 µM | [2] 13.7 µM | [3] 7.67 µM | [4] > 10 µM | [5] 13.7 µM | [6] 14.8 µM | [7] 13.2 µM | [8] 15.9 µM | [9] 11 µM | [10] 11.4 µM | [11] 15.2 µM | [12] 10.3 µM | [13] 1.37 µM | [14] 9.79 µM | [15] 10.9 µM | [16] 15.1 µM | [17] 12.6 µM

Nc1ccccc1/C=C\c1ccccc1
inactive: [1] > 100 µM | [18] > 100 µM | [2] > 100 µM | [3] > 100 µM | [4] > 100 µM | [5] > 100 µM | [6] > 100 µM | [7] > 100 µM | [19] > 100 µM | [9] > 100 µM | [10] > 100 µM | [11] > 100 µM | [12] > 100 µM | [13] > 100 µM | [14] > 100 µM | [20] > 100 µM | [16] > 100 µM | [17] > 100 µM

Clc1ccc2c(c1)[nH]c1c2nc2sccn21
inactive: [1] > 100 µM | [2] > 100 µM | [3] > 100 µM | [4] > 100 µM | [5] > 100 µM | [6] > 100 µM | [7] > 100 µM | [8] > 100 µM | [9] > 100 µM | [10] > 100 µM | [11] > 100 µM | [12] > 100 µM | [13] > 100 µM | [14] 28.6 µM | [15] > 100 µM | [16] > 100 µM | [17] > 100 µM

CC1Oc2c(c(=O)oc3ccccc23)[C@@]1(C)CC1C[C@H](C)C(=O)O1 (some centres undefined)
inactive: [1] > 100 µM | [18] 32.7 µM | [2] 24.4 µM | [3] 10.9 µM | [4] 18.3 µM | [5] 38.8 µM | [6] 27.1 µM | [7] 27.5 µM | [8] > 100 µM | [19] 37.4 µM | [10] 44.6 µM | [11] 26.9 µM | [13] 27.6 µM | [14] 24.7 µM | [20] 23.3 µM | [16] 35.1 µM | [17] 20.9 µM

From ChEMBL document CHEMBL1201862, “PubChem BioAssay data set” (2004)
